From ChEMBL document CHEMBL1143774, “Parallel strategies for the preparation and selection of liver-targeted glucocorticoid receptor antagonists” (Bioorg Med Chem Lett, 2007) come the findings set out here.

Data set [1] has as its system Rattus norvegicus. In words: Inhibition of prednisilone-induced glycogen depostion in Sprague-Dawley rats at 100 mg/kg, po. It is filed as functional.
Data set [2] concerns Rattus norvegicus. Briefly: Inhibition of prednisilone-induced lymphopenia in Sprague-Dawley rats at 100 mg/kg, po. It is filed as functional.
The subject of data set [3] is Rattus norvegicus. Briefly: Inhibition of prednisilone-induced TAT level in Sprague-Dawley rats at 100 mg/kg, po. Format: functional.
Data set [4] deals with T1, Glucocorticoid receptor (Homo sapiens, UniProt P04150).
T1 sequence (P04150 whole entry): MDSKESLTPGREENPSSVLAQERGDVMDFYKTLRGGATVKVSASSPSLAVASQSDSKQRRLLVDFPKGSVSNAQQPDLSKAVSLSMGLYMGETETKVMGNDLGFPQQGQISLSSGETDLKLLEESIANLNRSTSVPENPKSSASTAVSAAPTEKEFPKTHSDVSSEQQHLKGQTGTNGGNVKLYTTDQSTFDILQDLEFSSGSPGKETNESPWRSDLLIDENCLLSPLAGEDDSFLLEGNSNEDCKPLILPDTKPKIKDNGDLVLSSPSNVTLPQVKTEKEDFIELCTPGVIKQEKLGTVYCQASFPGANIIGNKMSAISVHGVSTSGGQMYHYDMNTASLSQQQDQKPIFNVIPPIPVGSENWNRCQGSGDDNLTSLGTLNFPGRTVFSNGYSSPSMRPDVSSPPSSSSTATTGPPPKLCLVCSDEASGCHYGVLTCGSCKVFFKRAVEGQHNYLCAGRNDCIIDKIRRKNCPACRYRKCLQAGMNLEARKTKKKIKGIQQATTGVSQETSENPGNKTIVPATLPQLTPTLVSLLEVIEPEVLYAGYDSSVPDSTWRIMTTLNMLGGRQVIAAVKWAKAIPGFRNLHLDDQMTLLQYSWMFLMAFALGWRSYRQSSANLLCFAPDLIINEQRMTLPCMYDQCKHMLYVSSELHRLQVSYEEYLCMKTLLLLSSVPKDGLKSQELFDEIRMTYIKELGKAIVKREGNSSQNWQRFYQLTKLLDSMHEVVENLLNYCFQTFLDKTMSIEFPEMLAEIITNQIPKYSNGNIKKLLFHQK
In words: Inhibition of human GR expressed in hGRAF cells. Format: cell-based.

In data set [5] the target is T1, Glucocorticoid receptor. Briefly: Displacement of radiolabeled Dexamethasone from human GR.
Data set [6] deals with T1, Glucocorticoid receptor. Briefly: Inhibition of human GR transcriptional activation by HepTAT cells. Format: cell-based.
Data set [7] in a line: Drug level in Sprague-Dawley rat liver after 1 hr. It is filed as ADME, tissue-based. To be noted: read-out: Activity.
Data set [8] is described as follows: Ratio of drug level in liver to plasma in Sprague-Dawley rat at 1 hr. Format: ADME, tissue-based. To be noted: liver and plasma.

In the case of `CC#C[C@]1(O)CC[C@H]2[C@@H]3CCC4=CC(=O)CCC4=C3[C@@H](c3ccc(N(C)Cc4ccc(C(=O)N[C@H](CCSC)C(=O)O)cc4OC)cc3)C[C@@]21C`, the values for the inhibition in vivo at 100 mg/kg in data set [1], in data set [2] and in data set [3] were 8%, -4% and -27%, respectively.
With `CC#C[C@]1(O)CC[C@H]2[C@@H]3CCC4=CC(=O)CCC4=C3[C@@H](c3ccc(N(C)CC(=O)Nc4nc(CC(=O)O)cs4)cc3)C[C@@]21C`, the Ki in data set [4] was found to be 765 nM; in data set [5] it was 35 nM; in data set [6], 31 nM.
Taken in the same sequence, the figures for `CC#C[C@]1(O)CC[C@H]2[C@@H]3CCC4=CC(=O)CCC4=C3[C@@H](c3ccc(N(C)CC(=O)N(Cc4ccc(C(=O)O)cc4)c4ccc(Br)cc4)cc3)C[C@@]21C` were 33 nM, 0.9 nM and 33 nM.
Taken in the same sequence, the figures for `CC#C[C@]1(O)CC[C@H]2[C@@H]3CCC4=CC(=O)CCC4=C3[C@@H](c3ccc(N(C)CC(=O)Nc4ccc(C(=O)O)cc4)cc3)C[C@@]21C` were 91.8 nM, 2.7 nM and 75 nM.
Turning to `CC#C[C@]1(O)CC[C@H]2[C@@H]3CCC4=CC(=O)CCC4=C3[C@@H](c3ccc(N(C)CC(=O)N(C)c4ccc(C(=O)O)cc4)cc3)C[C@@]21C`, the Ki worked out at 21 nM in data set [4], 0.5 nM in data set [5] and 64 nM in data set [6].
For `CC#C[C@]1(O)CC[C@H]2[C@@H]3CCC4=CC(=O)CCC4=C3[C@@H](c3ccc(N(C)Cc4ccc(C(=O)O)cc4)cc3)C[C@@]21C`, the Ki in data set [4] was determined as 12 nM; in data set [5] it was 1.8 nM; in data set [6] it was 52 nM. Moreover, the inhibition in vivo at 100 mg/kg in data set [1] was found to be 94%; in data set [2], 123%; in data set [3] it was 106%.
`CC#C[C@]1(O)CC[C@H]2[C@@H]3CCC4=CC(=O)CCC4=C3[C@@H](c3ccc(N(C)CC(=O)N(Cc4ccccc4)Cc4ccc(C(=O)O)cc4)cc3)C[C@@]21C`: the inhibition constant (Ki) was 39 nM in data set [4], 1.1 nM in data set [5] and 57 nM in data set [6].
`CC#C[C@]1(O)CC[C@H]2[C@@H]3CCC4=CC(=O)CCC4=C3[C@@H](c3ccc(N(C)Cc4ccc(C(C)C(=O)O)cc4)cc3)C[C@@]21C` (stereo partly drawn): in data set [7], the concentration at 1 h was found to be 37000 ng/g. For the same compound, the Kp at 1 h in data set [8] amounted to 17.
For the compound `CC#C[C@]1(O)CC[C@H]2[C@@H]3CCC4=CC(=O)CCC4=C3[C@@H](c3ccc(N(C)Cc4ccc(C(=O)NCc5cccc(C(=O)O)c5)cc4)cc3)C[C@@]21C`, the inhibition in vivo at 100 mg/kg is -12% in data set [1], -10% in data set [2] and 3% in data set [3].
For the compound `CC#C[C@]1(O)CC[C@H]2[C@@H]3CCC4=CC(=O)CCC4=C3[C@@H](c3ccc(N(C)Cc4cccc(C(=O)O)c4)cc3)C[C@@]21C`, the values for the Ki in data set [4], in data set [5] and in data set [6] were 30 nM, 3 nM and 112 nM, respectively.
For the compound `CC#C[C@]1(O)CC[C@H]2[C@@H]3CCC4=CC(=O)CCC4=C3[C@@H](c3ccc(N(C)C)cc3)C[C@@]21C` [MIFEPRISTONE], the figures for the inhibition in vivo at 100 mg/kg in data set [1], in data set [2] and in data set [3] were 77%, 104% and 101%, respectively.
As for `CC#C[C@]1(O)CC[C@H]2[C@@H]3CCC4=CC(=O)CCC4=C3[C@@H](c3ccc(N(C)Cc4ccc(C(=O)NCC(=O)O)cc4)cc3)C[C@@]21C`, the Ki in data set [4] is 90 nM; in data set [5], 0.6 nM; in data set [6], 36 nM. The inhibition in vivo at 100 mg/kg came to 47% in data set [1], 40% in data set [2] and 48% in data set [3].
As to `CC#C[C@]1(O)CC[C@H]2[C@@H]3CCC4=CC(=O)CCC4=C3[C@@H](c3ccc(N(C)Cc4ccc(CC(=O)O)cc4)cc3)C[C@@]21C`, the values for the Ki in data set [4], in data set [5] and in data set [6] were 4.4 nM, 1.8 nM and 32 nM, respectively. Moreover, the inhibition in vivo at 100 mg/kg was determined as 101% in data set [1], 117% in data set [2] and 95% in data set [3].
As to `CC#C[C@]1(O)CC[C@H]2[C@@H]3CCC4=CC(=O)CCC4=C3[C@@H](c3ccc(N(C)CC(=O)N(C)Cc4cccc(C(=O)O)c4)cc3)C[C@@]21C`, the inhibition in vivo at 100 mg/kg in data set [1] is 9%; in data set [2], -10%; in data set [3], 20%.
For the compound `CC#C[C@]1(O)CC[C@H]2[C@@H]3CCC4=CC(=O)CCC4=C3[C@@H](c3ccc(N(C)CCCCC(=O)O)cc3)C[C@@]21C`, the values for the Ki in data set [4], in data set [5] and in data set [6] were 15 nM, 4.8 nM and 127 nM, respectively.
